Assay results published in ChEMBL document CHEMBL1909046, “DrugMatrix in vitro pharmacology data”.

How the values were obtained:
[1] = target: C-C chemokine receptor type 5 (Homo sapiens, UniProt P51681); assay type: cell membranes, Membrane; conditions: hek293; further: in other assays of this panel Not Active means under 50% inhibition at 10 µM
[2] = target: T1, Neuropeptide Y receptor type 2 (Homo sapiens, UniProt P49146); assay type: cell membranes, KAN-TS, Membrane; conditions: kan-ts; further: in other assays of this panel Not Active means under 50% inhibition at 10 µM
T1 sequence (P49146 whole entry): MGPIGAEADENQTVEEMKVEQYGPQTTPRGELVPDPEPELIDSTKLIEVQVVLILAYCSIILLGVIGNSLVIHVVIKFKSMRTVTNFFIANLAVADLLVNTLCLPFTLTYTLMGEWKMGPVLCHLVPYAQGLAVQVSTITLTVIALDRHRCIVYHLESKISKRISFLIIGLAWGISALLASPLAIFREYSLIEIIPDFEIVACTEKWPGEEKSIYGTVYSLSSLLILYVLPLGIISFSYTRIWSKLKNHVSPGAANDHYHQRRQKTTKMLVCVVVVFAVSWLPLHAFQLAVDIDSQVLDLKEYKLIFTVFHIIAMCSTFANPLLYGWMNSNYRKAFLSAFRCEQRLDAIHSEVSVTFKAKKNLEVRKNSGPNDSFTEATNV

[3] = DRUGMATRIX: Atrial Natriuretic Factor (ANF) radioligand binding (ligand: [125I] ANF (rat)); assay type: cell membranes, Cavia porcellus, Dunkin-Hartley, Adrenal gland, Membrane; conditions: Not Active = under 50% inhibition at 10 µM
[4] = DRUGMATRIX: Serotonin (5-Hydroxytryptamine) 5-HT3 radioligand binding (ligand: [3H] GR-65630); assay type: cell membranes, Membrane; conditions: hek293; Not Active = under 50% inhibition at 10 µM
[5] = target: Aldo-keto reductase family 1 member B1 (Rattus norvegicus, UniProt P07943); assay type: tissue-based, Lens of camera-type eye;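 further: inhibition of aldose reductase enzyme activity, measured with DL-glyceraldehyde as the substrate; in other assays of this panel Not Active means under 50% inhibition at 10 µM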
Mu-type opioid receptor = Mu-type opioid receptor (Homo sapiens, UniProt P35372); experiment: DRUGMATRIX: Opiate mu (OP3, MOP) radioligand binding (ligand: [3H] Diprenorphine); assay type: cell membranes, CHO-K1, Membrane; conditions: cho-k1; Not Active = under 50% inhibition at 10 µM
[6] = target: Sigma non-opioid intracellular receptor 1 (Homo sapiens, UniProt Q99720); experiment: DRUGMATRIX: Sigma1 radioligand binding (ligand: [3H] Haloperidol); assay type: cell membranes, Jurkat, Membrane; conditions: jurkat; Not Active = under 50% inhibition at 10 µM
Sigma non-opioid intracellular receptor 1, sequence (Q99720 whole entry): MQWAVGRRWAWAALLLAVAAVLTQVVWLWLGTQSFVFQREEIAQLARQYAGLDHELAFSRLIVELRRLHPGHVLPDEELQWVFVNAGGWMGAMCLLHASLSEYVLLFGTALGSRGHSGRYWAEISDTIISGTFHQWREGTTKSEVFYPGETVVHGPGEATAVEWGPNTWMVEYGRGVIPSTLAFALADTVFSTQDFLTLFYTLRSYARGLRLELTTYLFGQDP

C-C chemokine receptor type 5, sequence (P51681 whole entry): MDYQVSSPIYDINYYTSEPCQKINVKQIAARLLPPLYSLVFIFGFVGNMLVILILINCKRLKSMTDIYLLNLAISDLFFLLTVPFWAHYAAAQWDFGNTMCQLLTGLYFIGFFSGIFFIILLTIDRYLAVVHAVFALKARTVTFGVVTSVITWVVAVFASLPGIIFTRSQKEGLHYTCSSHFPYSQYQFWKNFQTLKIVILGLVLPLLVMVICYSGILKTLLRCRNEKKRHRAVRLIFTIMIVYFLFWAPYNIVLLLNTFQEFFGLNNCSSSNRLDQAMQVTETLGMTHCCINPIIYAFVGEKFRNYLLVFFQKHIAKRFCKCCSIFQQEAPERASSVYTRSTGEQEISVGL
Mu-type opioid receptor, sequence (P35372 whole entry): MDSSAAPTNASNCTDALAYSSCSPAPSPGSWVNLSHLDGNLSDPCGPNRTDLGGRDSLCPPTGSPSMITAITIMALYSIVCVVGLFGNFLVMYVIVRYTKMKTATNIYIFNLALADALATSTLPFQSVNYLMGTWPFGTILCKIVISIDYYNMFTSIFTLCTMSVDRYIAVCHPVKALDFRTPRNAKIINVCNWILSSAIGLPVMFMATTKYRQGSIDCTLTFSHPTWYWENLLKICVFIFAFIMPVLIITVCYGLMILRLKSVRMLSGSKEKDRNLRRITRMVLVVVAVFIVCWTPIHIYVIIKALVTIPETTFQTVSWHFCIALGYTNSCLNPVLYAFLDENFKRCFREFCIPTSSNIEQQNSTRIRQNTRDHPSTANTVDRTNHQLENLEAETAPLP

CC(C)=CCC/C(C)=C/CO [GERANIOL]
Not Active: IC50 [1] | IC50 [2] | IC50 [3] | Ki [3] | IC50 [4] | Ki [4] | IC50 [5] | IC50 (Mu-type opioid receptor) | IC50 [6]

N=C(N)NC(=O)Cc1c(Cl)cccc1Cl [GUANFACINE]
Not Active: IC50 [1] | IC50 [2] | IC50 [3] | Ki [3] | IC50 [4] | Ki [4] | IC50 [5] | IC50 (Mu-type opioid receptor) | IC50 [6]

Oc1c(Cl)cc(Cl)c(Cl)c1Cc1c(O)c(Cl)cc(Cl)c1Cl [HEXACHLOROPHENE]
Not Active: IC50 [1] | IC50 [2] | IC50 [3] | Ki [3] | IC50 [4] | Ki [4] | IC50 [5] | IC50 (Mu-type opioid receptor) | IC50 [6]

NNc1nncc2ccccc12 [HYDRALAZINE]
Not Active: IC50 [1] | IC50 [2] | IC50 [3] | Ki [3] | IC50 [4] | Ki [4] | IC50 [5] | IC50 (Mu-type opioid receptor) | IC50 [6]

CC(=O)[C@@]1(O)CC[C@H]2[C@@H]3CCC4=CC(=O)CC[C@]4(C)[C@H]3CC[C@@]21C [HYDROXYPROGESTERONE]
Not Active: IC50 [1] | IC50 [2] | IC50 [3] | Ki [3] | IC50 [4] | Ki [4] | IC50 [5] | IC50 (Mu-type opioid receptor) | IC50 [6]

COC1=C(OC)C(=O)C(CCCCCCCCCCO)=C(C)C1=O [IDEBENONE]
Not Active: IC50 [1] | IC50 [2] | IC50 [3] | Ki [3] | IC50 [4] | Ki [4] | IC50 [5] | IC50 (Mu-type opioid receptor) | IC50 [6]

CC(C)NNC(=O)c1ccncc1 [IPRONIAZID]
Not Active: IC50 [1] | IC50 [2] | IC50 [3] | Ki [3] | IC50 [4] | Ki [4] | IC50 [5] | IC50 (Mu-type opioid receptor) | IC50 [6]

Cc1c(OCC(F)(F)F)ccnc1C[S+]([O-])c1nc2ccccc2[nH]1 (stereo unspecified) [LANSOPRAZOLE]
Not Active: IC50 [1] | IC50 [2] | IC50 [3] | Ki [3] | IC50 [4] | Ki [4] | IC50 [5] | IC50 (Mu-type opioid receptor) | IC50 [6]

O=c1cc(N2CCOCC2)oc2c(-c3ccccc3)cccc12 [LY-294002]
Not Active: IC50 [1] | IC50 [2] | IC50 [3] | Ki [3] | IC50 [4] | Ki [4] | IC50 [5] | IC50 (Mu-type opioid receptor) | IC50 [6]

COc1ccc2[nH]cc(CCNC(C)=O)c2c1 [MELATONIN]
Not Active: IC50 [1] | IC50 [2] | IC50 [3] | Ki [3] | IC50 [4] | Ki [4] | IC50 [5] | IC50 (Mu-type opioid receptor) | IC50 [6]

NC(=O)C[S+]([O-])C(c1ccccc1)c1ccccc1 (stereo unspecified) [MODAFINIL]
Not Active: IC50 [1] | IC50 [2] | IC50 [3] | Ki [3] | IC50 [4] | Ki [4] | IC50 [5] | IC50 (Mu-type opioid receptor) | IC50 [6]

CCN(CC)CCOCCC1=CCC2CC1C2(C)C (stereo unspecified) [MYRTECAINE]
Not Active: IC50 [1] | IC50 [2] | IC50 [3] | Ki [3] | IC50 [4] | Ki [4] | IC50 [5] | IC50 (Mu-type opioid receptor) | IC50 [6]

O=C(O)c1cccnc1Nc1cccc(C(F)(F)F)c1 [NIFLUMIC ACID]
Not Active: IC50 [1] | IC50 [2] | IC50 [3] | Ki [3] | IC50 [4] | Ki [4] | IC50 [5] | IC50 (Mu-type opioid receptor) | IC50 [6]

O=C(N/N=C/c1ccc([N+](=O)[O-])o1)c1cc([N+](=O)[O-])cc([N+](=O)[O-])c1O [NIFURSOL]
Not Active: IC50 [1] | IC50 [2] | IC50 [3] | Ki [3] | IC50 [4] | Ki [4] | IC50 [5] | IC50 (Mu-type opioid receptor) | IC50 [6]
